Legend:
[1] = system: Raf/MEK/ERK signaling in RD‐GC‐B cells; test: Western blot of Raf/MEK/ERK phosphorylation, RD‐GC‐B; assay type: cell-based, human; conditions: for ERK phosphorylation: CNP 1 μmol/L and/or sildenafil 100 μmol/L, 1–8 h
Method: (§1) A total of 1 × 10^5 cells per well were plated in 12‐well plastic plates in complete media. Cells were serum‐starved with RPMI‐1640 medium containing 1% serum for 24 h, and then treated with CNP (1 μmol/L) and/or sildenafil (100 μmol/L) for indicated times. Cells were lysed with NP‐40 buffer (0.5% NP‐40, 10 mmol/L Tris [pH 7.6], 0.15 mol/L NaCl, 1.5 mmol/L […]) containing phosphatase inhibitor cocktail (Nacalai Tesque). Samples were electrophoresed on 4–15% gradient gels (Bio‐Rad, Hercules, CA, USA) and transferred onto polyvinylidene difluoride transfer membranes (Millipore Bedford, MA). Antibody binding was detected with an enhanced chemiluminescence detection system (Amersham Pharmacia Biotech, Piscataway, NJ).

[2] = system: RD‐GC‐B xenograft tumors; test: Xenograft efficacy study; assay type: in vivo; conditions: for tumor growth (tumor volume): CNP 2.5 μg/kg/min continuous s.c. infusion, versus vehicle; for tumor growth (tumor volume) / Ki67 labeling index: n = 7–8; for Ki67 labeling index: RD‐GC‐B tumors, immunohistochemistry, relative to the control group; for Phosphorylated ERK levels in xenograft tumors: pERK1/2 versus total ERK1/2, western blot densitometry, after 4 weeks of treatment
Method: All animal experiments were performed according to a protocol approved by the Animal Care Ethics Committee of the National Cerebral and Cardiovascular Center Research Institute. Five‐week‐old male BALB/c nu/nu mice and 5‐week‐old male nonobese diabetic/severe combined immunodeficiency (NOD)⁄severe combined immunodeficiency (SCID) mice were purchased from Japan SLC (Shizuoka, Japan) and Oriental Yeast (Tokyo, Japan), respectively.
RD‐GC‐B cells (1–3 × 10^7 cells) were subcutaneously implanted into the chest and abdominal area of NOD/SCID mice. When the subcutaneous tumors reached a diameter of 10–12 mm, they were resected, divided into 5‐mm pieces, and reimplanted into the chest area of BALB/c nu/nu mice. Ten days after tumor implantation, administration of CNP and/or sildenafil was initiated. CNP was continuously infused using an osmotic mini‐pump (Alzet Model 1003D; Duret Corporation, Cupertino, CA), as previously reported 14. CNP was subcutaneously administered at a rate of 2.5 μg/kg/min, and treatment continued for 4 weeks. Sildenafil was intraperitoneally administered at a dose of 20 mg/kg every other day for 4 weeks. Tumor volume was calculated by the formula: V (mm^3) = 0.5 × a × b ^2, where a is the longest tumor axis and b is the shortest tumor axis.
Immunohitochemical staining was performed by the avidin‐biotin‐peroxidase complex (ABC) method using the Vectastain Elite ABC kit (Vector, Burlingame, CA) as described previously 14. Because the anti‐Ki67 antibody was mouse monoclonal antibody, a mouse on mouse immunodetection kit (Vector) was used. Images of immunohistochemical staining were captured using a FSX100 Bio Imaging Navigator microscope (Olympus, Tokyo, Japan). Ki67‐positive and ‐negative cells were counted using the CellSens Dimension software (Olympus). Ten randomly selected fields per section and 7–8 sections per animal were analyzed at 20 × magnification.

[3] = system: Notch, Wnt, Hedgehog, and PI3K/AKT/mTOR signaling pathways in RD‐GC‐B cells; test: Western blot of HES‐1, β‐catenin, GLI1 and phosphorylated Akt, RD‐GC‐B; assay type: cell-based, human; conditions: CNP 1 µM, sildenafil 100 µM, 4 hours
Method: as §1

[4] = system: RD‐GC‐B and RMS‐YM‐GC‐B cells; test: Morphological appearance of cell death during proliferation assay; assay type: cell-based; conditions: during 96 h; CNP 1 μmol/L and/or sildenafil 100 μmol/L
Method: (§2) A total of 2000 cells per well were seeded into 96‐well plates in 100 μL of culture medium. After 24 h, the wells were washed twice with 1% serum‐free RPMI‐1640 medium and subsequently incubated in this medium. Twenty‐four hours after serum deprivation, CNP (1 μmol/L) and/or sildenafil (100 μmol/L) were added, and the cells were incubated for 0–4 days. Cell proliferation was determined in sextuplicate using the Cell Counting Kit‐8 (Nacalai Tesque, Kyoto, Japan).

[5] = system: Raf/MEK/ERK signaling in RMS‐YM‐GC‐B cells; test: Western blot of Raf/MEK/ERK phosphorylation, RMS‐YM‐GC‐B; assay type: cell-based, human; conditions: for ERK phosphorylation: CNP 1 μmol/L and/or sildenafil 100 μmol/L, 1–8 h
Method: as §1

[6] = system: RD‐GC‐B cells; test: Caspase‐3 activity (Nuc‐View 488 Caspase‐3 assay kit); assay type: cell-based, human; conditions: same conditions as proliferation assay, Nuc‐View 488 substrate, data not shown
[7] = system: parental RMS‐YM cells; test: Cell proliferation assay, parental RMS‐YM; assay type: cell-based, human; conditions: data not shown
Method: as §2

[8] = system: ERK phosphorylation in parental RD cells; test: Western blot of ERK phosphorylation, parental RD; assay type: cell-based, human; conditions: data not shown
Method: as §1

[9] = molecular target: T1, GC‐B receptors in RMS‐YM cells (Homo sapiens, UniProt P20594); test: Measurement of intracellular cGMP (RIA) in RMS‐YM cells; assay type: cell-based; conditions: 15 min
T1 construct: host or cells: RMS‐YM cells
T1 sequence (P20594 23-1047): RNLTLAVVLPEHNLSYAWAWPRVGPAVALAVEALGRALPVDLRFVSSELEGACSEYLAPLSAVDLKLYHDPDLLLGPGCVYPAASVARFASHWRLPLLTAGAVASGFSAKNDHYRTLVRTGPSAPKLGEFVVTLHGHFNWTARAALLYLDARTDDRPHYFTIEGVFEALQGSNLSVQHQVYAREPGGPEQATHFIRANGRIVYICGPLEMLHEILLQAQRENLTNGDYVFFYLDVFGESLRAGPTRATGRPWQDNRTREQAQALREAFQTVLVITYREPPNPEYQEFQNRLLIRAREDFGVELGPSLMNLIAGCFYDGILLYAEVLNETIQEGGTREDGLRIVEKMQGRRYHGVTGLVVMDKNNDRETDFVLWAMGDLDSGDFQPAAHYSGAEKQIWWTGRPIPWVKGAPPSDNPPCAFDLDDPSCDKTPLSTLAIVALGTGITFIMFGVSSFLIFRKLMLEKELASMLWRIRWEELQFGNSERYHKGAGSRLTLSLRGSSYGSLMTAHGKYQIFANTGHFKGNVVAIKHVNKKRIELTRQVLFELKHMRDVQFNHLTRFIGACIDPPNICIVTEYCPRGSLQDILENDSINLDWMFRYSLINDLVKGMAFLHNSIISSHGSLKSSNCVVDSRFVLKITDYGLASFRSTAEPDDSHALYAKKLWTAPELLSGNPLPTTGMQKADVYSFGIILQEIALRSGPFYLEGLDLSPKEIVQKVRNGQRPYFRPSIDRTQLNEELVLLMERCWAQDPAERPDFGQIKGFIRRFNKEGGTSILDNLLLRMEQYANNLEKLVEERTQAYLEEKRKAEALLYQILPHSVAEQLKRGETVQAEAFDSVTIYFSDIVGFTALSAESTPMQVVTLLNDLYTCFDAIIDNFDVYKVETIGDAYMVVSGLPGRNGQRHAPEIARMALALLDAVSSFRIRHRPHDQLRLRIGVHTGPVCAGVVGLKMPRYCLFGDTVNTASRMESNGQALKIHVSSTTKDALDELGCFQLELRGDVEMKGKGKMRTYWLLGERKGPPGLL
Method: (§3) Rhabdomyosarcoma cells were seeded onto 24‐well plastic plates and incubated for 24 h. After the cells were confluent as a monolayer, they were washed twice with 500 μL of serum‐free RPMI‐1640 and incubated in serum‐free medium for 24 h. CNP was dissolved in 5 mmol/L isobutylmethylxanthine (IBMX) at final concentrations of 1 nmol/L–10 μmol/L. Various concentrations of CNP were added to the medium, and the monolayer was incubated at 37°C for an additional 15 min. The medium was rapidly removed by aspiration, and 400 μL of 70% ethanol containing 100 μmol/L hydrochloric acid (HCl) was added to lyse the cells. The cGMP content of the dried extract was quantitated using a radioimmunoassay (RIA) kit (Yamasa Shoyu, Tokyo, Japan).

[10] = system: RD‐GC‐B cells; test: Cell proliferation assay (Cell Counting Kit‐8 / WST‐8), RD‐GC‐B; assay type: cell-based, human; conditions: CNP 1 μmol/L, 96 h, 1% serum, versus solvent control, n = 6, three independent experiments
Method: as §2

[11] = molecular target: T2, GC‐B in RD‐GC‐B cells (Homo sapiens, UniProt P20594); test: Measurement of intracellular cGMP (RIA) in RD‐GC‐B cells; assay type: cell-based; conditions: RD‐GC‐B cells stably expressing GC‐B
T2 construct: host or cells: RD and RMS‐YM cells, retrovirally infected and puromycin-selected (RD‐GC‐B, RMS‐YM‐GC‐B)
T2 sequence (P20594 23-1047): T1 sequence (P20594 23-1047)
Source text: (§4) The plasmid used for preparing retrovirus vector expressing GC‐B‐FLAG (pCX4 puro GC‐B‐FLAG) was constructed by introducing the GC‐B‐FLAG fragment, amplified by polymerase chain reaction (PCR) from human GC‐B obtained from Promega (Madison, WI), into the NotI site of pCX4 puro. The vector was transfected into BOSC cells with pE‐eco and pGp (TAKARA BIO, Kyoto, Japan) using FuGENE6 (Promega) to produce ecotropic retrovirus. After transfection, culture supernatants were collected, and filtered. Retroviral infection of RD and RMS‐YM cells was performed using the retrovirus and Ecotropic Receptor Booster (TAKARA BIO). After infection, cells were selected with puromycin. These resultant cell lines are referred to as RD‐GC‐B or RMS‐YM‐GC‐B.
(§5) Rhabdomyosarcoma cells were seeded onto 24‐well plastic plates and incubated for 24 h. After the cells were confluent as a monolayer, they were washed twice with 500 μL of serum‐free RPMI‐1640 and incubated in serum‐free medium for 24 h. CNP was dissolved in 5 mmol/L isobutylmethylxanthine (IBMX) at final concentrations of 1 nmol/L–10 μmol/L. Various concentrations of CNP were added to the medium, and the monolayer was incubated at 37°C for an additional 15 min. […] The cGMP content of the dried extract was quantitated using a radioimmunoassay (RIA) kit (Yamasa Shoyu, Tokyo, Japan).

[12] = molecular target: T3, GC‐B in RMS‐YM‐GC‐B cells (Homo sapiens, UniProt P20594); test: Measurement of intracellular cGMP (RIA) in RMS‐YM‐GC‐B cells; assay type: cell-based; conditions: RMS‐YM‐GC‐B cells stably expressing GC‐B
T3 construct: host or cells: RD and RMS‐YM cells, retrovirally infected and puromycin-selected (RD‐GC‐B, RMS‐YM‐GC‐B)
T3 sequence (P20594 23-1047): T1 sequence (P20594 23-1047)
Source text: as §4, §5

[13] = system: parental RD cells; test: Cell proliferation assay, parental RD; assay type: cell-based, human; conditions: data not shown
Method: as §2

[14] = molecular target: T4, GC‐B receptors in RD cells (Homo sapiens, UniProt P20594); test: Measurement of intracellular cGMP (RIA) in RD cells; assay type: cell-based; conditions: 15 min
T4 construct: host or cells: RD cells
T4 sequence (P20594 23-1047): T1 sequence (P20594 23-1047)
Method: as §3

[15] = system: ERK phosphorylation in parental RMS‐YM cells; test: Western blot of ERK phosphorylation, parental RMS‐YM; assay type: cell-based, human; conditions: data not shown
Method: as §1

[16] = Plasma CNP measurements (CNP RIA kit); assay type: in vivo, C57BL/6 mice; conditions: continuous s.c. infusion 2.5 μg/kg/min by osmotic mini‐pump, blood 3 days after implantation, n = 5 versus untreated n = 10
Method: Osmotic mini‐pumps containing CNP were implanted subcutaneously in 6‐week‐old male C57BL/6 mice purchased from Japan SLC. CNP was administered at a rate of 2.5 μg/kg/min, and blood samples from these treated mice and untreated mice were withdrawn 3 days after the implantation. CNP content was determined using a CNP RIA kit (Phoenix Pharmaceuticals, Belmont, CA).

[17] = subcutaneous infusion of CNP at 2.5 μg/kg/min; cited from earlier work
Source text: There are some limitations in this study. First, RMS cells stably expressing GC‐B expressed higher levels of GC‐B than clinical samples. However, given that the recurrent sample expressed a very high level of GC‐B, the findings made using RMS cells stably expressing GC‐B are still quite valuable.

[18] = system: RMS‐YM‐GC‐B cells; test: Cell proliferation assay (Cell Counting Kit‐8 / WST‐8), RMS‐YM‐GC‐B; assay type: cell-based, human; conditions: CNP 1 μmol/L, 96 h, 1% serum, versus solvent control, n = 6, three independent experiments
Method: as §2

[19] = sildenafil 20 mg/kg i.p. every other day, 4 weeks
[20] = CNP 1 nmol/L–10 μmol/L with IBMX, 37°C, serum-free, RIA, average of four wells
[21] = CNP 1 μmol/L, sildenafil 100 μmol/L

## CCCc1nn(C)c2c(=O)[nH]c(-c3cc(S(=O)(=O)N4CCN(C)CC4)ccc3OCC)nc12 [sildenafil]
[1]
  ERK phosphorylation: did not cause dephosphorylate ERK
[2]; [19]
  tumor growth (tumor volume): did not suppress tumor growth significantly
[2]
  Ki67 labeling index: significantly reduced
  Phosphorylated ERK levels in xenograft tumors: ~30 % of control levels
[3]
  Expression of HES‐1, β‐catenin, and GLI1, and phosphorylation of Akt: not changed
[4]
  morphological appearance of cell death: not observed
[5]
  ERK phosphorylation: did not cause dephosphorylate ERK
[6]
  caspase‐3 activity (apoptosis): not significantly induced

## C‐type natriuretic peptide [CNP]
[7]
  effect on proliferation: no effect
[8]
  reduction in ERK phosphorylation: no effect
[9]; with IBMX
  CNP concentration at which cGMP levels almost reached a plateau: ~1 µmol/L
[9]; [20]
  intracellular cGMP levels: increased the intracellular cGMP levels in a dose‐dependent manner
[10]
  cell proliferation: significantly attenuated
[1]
  ERK phosphorylation: dephosphorylation of ERK
[1]; [21]
  phosphorylation of Raf‐1 and MEK: Dephosphorylation
[11]
  CNP‐dependent cGMP production: robust increases
[2]; 4 weeks, CNP 2.5 μg/kg/min s.c., sildenafil 20 mg/kg i.p. every other day, relative to control group
  body weight of mice during treatment (tolerability): did not induce weight loss
[2]; [19]
  tumor growth (tumor volume): did not suppress tumor growth significantly
[2]
  Ki67 labeling index: significantly reduced
  Phosphorylated ERK levels in xenograft tumors: ~30 % of control levels
[12]
  CNP‐dependent cGMP production: robust increases
[3]
  Expression of HES‐1, β‐catenin, and GLI1, and phosphorylation of Akt: not changed
[13]
  effect on proliferation: no effect
[4]
  morphological appearance of cell death: not observed
[14]; with IBMX
  CNP concentration at which cGMP levels almost reached a plateau: ~1 µmol/L
[14]; [20]
  intracellular cGMP levels: increased the intracellular cGMP levels in a dose‐dependent manner
[15]
  reduction in ERK phosphorylation: no effect
[16]
  plasma concentration of CNP: significantly increased
[5]
  ERK phosphorylation: dephosphorylation of ERK
[5]; [21]
  phosphorylation of Raf‐1 and MEK: Dephosphorylation
[6]
  caspase‐3 activity (apoptosis): not significantly induced
[17]
  hypotension: does not cause hypotension
[18]
  cell proliferation: significantly attenuated

Reference: PMC4864809, “C‐type natriuretic peptide in combination with sildenafil attenuates proliferation of rhabdomyosarcoma cells” (Cancer Medicine, 2016)
